Patent US5622944A, “Testosterone prodrugs for improved drug delivery” (Affymax Technologies N.V., priority 1995, dated 1997)
Structures can show the parent of a compound that is named as a salt.

What was measured:
[1] = in vitro; assay type: cell-based, human; conditions: human, dermal fibroblasts, MTT; for CC50 at 2 h: IC50 2 h (cytotoxicity), 2 h incubation; for CC50 at 16 h: IC50 16 h (cytotoxicity), 16 h incubation
Experimental: As discussed above, the chemical modifier, when present in the subject in its free or released form, and in appropriately administered amounts, should preferably be non-toxic. Additionally, any further in vivo degradation products of the chemical modifier should be non-toxic, as well. Table 2 provides in vitro relative cytotoxicity data for a number of testosterone/chemical modifier complexes, prepared in accordance with the invention. The cytotoxicity assessment was carried out by examining the viability of human dermal fibroblasts in the presence of a number of testosterone/chemical modifier complexes in accordance with the present invention. Details of the experimental protocol are summarized in Example 27.
The viability of human dermal fibroblasts in the presence of the 17-hydroxy sterol/chemical modifier compounds was assayed using MTT (3-[4,5-dimethylthiazol-2-yl]-2,5-diphenyltetrazolium bromide) reduction to formazan by mitochondrial enzymes as an indicator of cytotoxicity (Swisher, et al.). Confluent fibroblast cells were incubated for 2 or 16 hours in the presence of increasing concentrations of drug complex. At the end of the incubation period, medium was replaced for 4 hours by medium containing the tetrazolium salt, MTT. Metabolism of MTT to a blue formazan was quantitated by spectrophotometry at 540 nm.

[2] = Degradation (%/d)
[3] = Water solubility (H2O sol); conditions: for solubility: H2O sol
[4] = assay type: in vitro ADME, mouse; conditions: murine skin, active cells (ETm), 10 mM donor, 100 uA/cm^2, 6 h, 32° C.
Experimental: In vitro electrotransport of testosterone/chemical modifier complexes across hairless mouse skin was evaluated as described in Example 28. The experiments were conducted using modified Valia-Chien cells having 1.0 ml donor and 2.5 ml receptor cells. Anodic transport was carried out using a silver wire-based salt bridge in the donor compartment and a silver chloride cathode in the receptor. Cathodic transport was effected by reversing the electrode configuration. The cells were connected in series and a constant current and temperature were supplied to each cell.
After a predetermined period of time (6 h), aliquots were removed from the receiver phase for immediate analysis by HPLC to determine cumulative flux.
The electrotransport of testosterone/chemical modifier complexes was achieved using modified Valia-Chien cells (1.0 ml donor and 2.5 ml receptor cells). Full thickness, hairless mouse skin (Charles River Labs, Wilmington, Mass.) was soaked for one hour in phosphate buffered saline (PBS, pH=7.4) before placing between each compartment (dermal side of skin facing toward receptor). One passive (P1:data) and two or more (ETm :data) active cells were used to screen each compound.
A 10 mM (1 ml) aqueous solution of testosterone drug/prodrug was placed in the donor (unstirred) compartment and the receptor (stirred) was filled with 2.5 ml of PBS. In order to check for egress due to e.g. damaged skin, a zero hour sample of receptor ([…]) was taken one half hour after the drug solution was placed in the donor compartment. Replacement fluid of equal sample volume was added to the receptor compartment immediately after samples were taken.
Anodic electrotransport was achieved using a silver wire (immersed in a polyvinylalcohol-based salt bridge to minimize junction potential) in the donor compartment and a AgCl cathode in the receptor. […] The electrotransport cells were connected in series and constant current (100 uA/cm^2, […] for a skin area of 0.64 cm^2) and temperature (32° C.) were supplied to each cell. After six hours of active/passive transport, aliquots (200 ul) of the receptor were sampled and immediately analyzed by HPLC.
A standard plot of peak area and concentration for each compound was constructed using HPLC. The peak areas of the samples were determined and the concentrations calculated using the standard data. Cumulative flux was calculated using Quickbasic and reported in nmol/cm^2 /hr.

[5] = in vitro; assay type: in vitro ADME; conditions: 37° C.; for half-life: human, serum
Experimental: The hydrolytic activity of the sterol prodrug may be evaluated by studies of the chemical or enzymatic conversion of the prodrug to the unmodified parent compound, as described in Example 26.
Generally, the sterol/chemical modifier complex is dissolved in a minimum amount of a suitable solvent, such as ethanol, and the resulting solution is added to a sample of human serum. Following incubation, aliquots are then removed at various time points and analyzed to determine the extent of hydrolysis. Table I herein lists the representative serum half-lives of a number of testosterone prodrugs according to the present invention.
The rates of conversion are readily determined, for example by spectrophotometric methods or by gas-liquid or high performance liquid chromatography. Half-lives and other kinetic parameters may then be calculated using standard techniques.
Determination of Testosterone Prodrug Hydrolysis in Serum
Stock solutions (6 mM) of the testosterone prodrugs were prepared in ethanol (dissolution was accomplished by vortexing, sonication, or warming at 37° C., as needed). If required for dissolution, one drop of a co-solvent such as dimethylsulfoxide, dimethylformamide or methanol was added. (Acetonitrile is undesirable because it deactivates the serum enzymes).
HPLC separation methods were established for each study by dilution of the above stock solutions (6 μl) in acetonitrile (1 ml) to form 36 μM solutions. Samples (10 μl) were injected onto a Nucleosil 5C8 column (250×4 mm ID) fitted with an additional guard column (11×4 mm ID) and eluted with a mobile phase of approximately 65% HPLC grade water and 35% trifluoroacetic acid in acetonitrile (0.1% TFA in acetonitrile). Exact proportions of the mobile phase eluents were adjusted in each case to give optimum separation and run times.
Freshly defrosted human serum (3 ml, Sigma) was warmed at 37° C. for five minutes and then the testosterone prodrug stock solution (60 μl) was added with vortexing. […] The aliquots were added to 800 μl of 2% zinc sulfate solution in a 1.5 ml disposable microcentrifuge tube, vortexed immediately and centrifuged at 14,000 RPM for 3 minutes. The supernatants (10 μl) were injected onto the HPLC and peak areas used to determine the percent of parent drug formed or percent of prodrug remaining. Serum blanks were prepared similarly by addition of serum to the zinc sulfate solution, followed by centrifugation. Initial (time=0) samples were prepared by adding serum to the zinc sulfate solution, followed by addition of the complex and separation by centrifugation. The time=0 samples, as well as the original stock solutions, were also used to assess the stability of the complex in the absence of enzyme. Half-lives were determined using the following equation : […]
and plotting time (x ordinate) versus the natural logarithm of percent remaining prodrug (y ordinate) to obtain the slope (m) and the y intercept (b).

[6] = footnote 1: prodrug remaining, no testosterone formed

SMILES	CC50 at 2 h [1] [µM]	CC50 at 16 h [1] [µM]	Degradation [2] [%/d]	Flux, active electrotransport (ET) [4] [nmol/cm^2 /hr]	solubility [3] [mg/mL]	half-life ([5]; HPLC) [h]	other results
C[C@]12CC[C@H]3[C@@H](CCC4=CC(=O)CC[C@@]43C)[C@@H]1CC[C@@H]2O [Code 1.0, 17β-hydroxyandrost-4-en-3-one, reference compound]	> 1000	423	0				H2O sol [3]: 0.0 mg/mL
CCCCCCCCCCCCCCCC(=O)O[C@H](CC(=O)O[C@H]1CC[C@H]2[C@@H]3CCC4=CC(=O)CC[C@]4(C)[C@H]3CC[C@]12C)C[N+](C)(C)C [Code 1.1, testosterone-17β-(O-palmitoyl-L-carnitinate), chloride salt]	< 10	< 10	0	0	26		
CC(=O)OC(CC(=O)O[C@H]1CC[C@H]2[C@@H]3CCC4=CC(=O)CC[C@]4(C)[C@H]3CC[C@]12C)C[N+](C)(C)C (stereo partly shown) [Code 1.2]	91.6	34.4	0	7.3 ± 5.8	22	96	
C[C@]12CC[C@H]3[C@@H](CCC4=CC(=O)CC[C@@]43C)[C@@H]1CC[C@@H]2OC(=O)OCOC(=O)CNC(=O)OCOC(=O)CCCCC[N+](C)(C)C [Code 1.8]						0.0667	
COC(=O)[C@H](COC(=O)O[C@H]1CC[C@H]2[C@@H]3CCC4=CC(=O)CC[C@]4(C)[C@H]3CC[C@]12C)[N+](C)(C)C [Code 1.9, testosterone-17β-(N,N,N-trimethyl-L-serine methyl ester) carbonate, tetrafluoroborate salt]						~0.00125	
COC(=O)[C@H](COC(=O)O[C@H]1CC[C@H]2[C@@H]3CCC4=CC(=O)CC[C@]4(C)[C@H]3CC[C@]12C)[N+](C)(C)C [Code 2.0, testosterone-17β-(N,N,N-trimethyl-L-serine methyl ester) carbonate, bromide salt]							Serum half-life ([5]; human serum, HPLC): 5 s
C[C@]12CC[C@H]3[C@@H](CCC4=CC(=O)CC[C@@]43C)[C@@H]1CC[C@@H]2OC(=O)OCOC(=O)CC[N+](C)(C)C [Code 2.1, testosterone-17β-(N,N,N-trimethyl-β-alaninyloxymethyl)carbonate,iodide salt]						0.0106	
C[C@]12CC[C@H]3[C@@H](CCC4=CC(=O)CC[C@@]43C)[C@@H]1CC[C@@H]2OC(=O)C[N+](C)(C)C [Code 2.2, testosterone-17β-betainoyl ester, bromide salt]	2300	650	0	7.9 ± 4.1	10	14	
C[C@]12CC[C@H]3[C@@H](CCC4=CC(=O)CC[C@@]43C)[C@@H]1CC[C@@H]2OC(=O)CCC[N+](C)(C)C [Code 2.3]	653	172	0	2.0 ± 0.8	20		half-life [5, 6]: ~15 h
C[C@]12CC[C@H]3[C@@H](CCC4=CC(=O)CC[C@@]43C)[C@@H]1CC[C@@H]2OC(=O)c1cccnc1 [Code 2.7, Testosterone-17β-nicotinate]	> 1000	> 1000				~840	H2O sol [3]: 0.0 mg/mL
CN(C)CCCC(=O)O[C@H]1CC[C@H]2[C@@H]3CCC4=CC(=O)CC[C@]4(C)[C@H]3CC[C@]12C [Code 3.0]							half-life ([5]; footnote 2: prodrug remaining, ~50% testosterone and ~50% unknown formed): 106 h
CN(C)CCCC(=O)O[C@H]1CC[C@H]2[C@@H]3CCC4=CC(=O)CC[C@]4(C)[C@H]3CC[C@]12C [Code 3.1, testosterone-17β-[4-N,N-dimethylaminobutyrate], hydrochloride salt]	255	145	0	0.7 ± 0.2	22		
CN(C)CCc1ccc(OC(=O)O[C@H]2CC[C@H]3[C@@H]4CCC5=CC(=O)CC[C@]5(C)[C@H]4CC[C@]23C)cc1 [Code 3.3, testosterone-17β-hordenine carbonate]						8.2	
COC(=O)[C@H](COC(=O)O[C@H]1CC[C@H]2[C@@H]3CCC4=CC(=O)CC[C@]4(C)[C@H]3CC[C@]12C)N(C)C [Code 3.5]						0.783	
C[C@]12CC[C@H]3[C@@H](CCC4=CC(=O)CC[C@@]43C)[C@@H]1CC[C@@H]2OC(=O)c1ccccn1 [Code 3.9, testosterone-17β-picolinate, hydrochloride salt]						12.2	
C[n+]1ccccc1C(=O)O[C@H]1CC[C@H]2[C@@H]3CCC4=CC(=O)CC[C@]4(C)[C@H]3CC[C@]12C [Code 4.0]	330	41.1			0.9		half-life ([5]; HSO4^- salt): 1.08 h; half-life ([5]; iodide (I--) salt): 1.17 h
C[C@]12CC[C@H]3[C@@H](CCC4=CC(=O)CC[C@@]43C)[C@@H]1CC[C@@H]2OC(=O)CCC(=O)NCCS(=O)(=O)O [Code 4.2, testosterone-17β-[taurinesuccinamide ester], triethvlammonium salt]				2.8 ± 3.7		24	
C[C@]12CC[C@H]3[C@@H](CC=C4C=C(OC(=O)CCC[N+](C)(C)C)CC[C@@]43C)[C@@H]1CC[C@@H]2OC(=O)CCC[N+](C)(C)C [Code 4.3, testosterone-3-enol, 17β-ol bis[4-(N,N,N-trimethylammonio)butyrate], dibromide salt]				1.0 ± 0.6			half-life ([5]; footnote 3: prodrug remaining, 60% [2.3] formed, no other products seen): 7.8 h
C[C@]12CC[C@H]3[C@@H](CC=C4C=C(OC(=O)CC[N+](C)(C)C)CC[C@@]43C)[C@@H]1CC[C@@H]2OC(=O)OCC[N+](C)(C)C [Code 4.4, testosterone-3-enol, 17β-ol 3-(N,N,N-trimethyl-β-alanine ester) 17-(choline carbonate), dibromide salt]				0.2 ± 0.0			half-life [5, 6]: 0.0383 h
